According to the NIST ThermoML archive (doi:10.1021/acs.jced.5b00152):
± gives the expanded uncertainty stated by the source.

Conditions: Liquid; for viscosity: Capillary tube (Ostwald / Ubbelohde) method; for mass density: Vibrating tube method

CCCCCCC [heptane]
Conditions	mass density [kg/m3]	viscosity [mPa·s]
293.25 K, 2103 kPa	685.58 ± 1.4	0.4229 ± 0.0058
293.25 K, 3666 kPa	687.27 ± 1.4	0.4317 ± 0.0059
293.25 K, 6195 kPa	689.52 ± 1.4	0.4449 ± 0.0061
293.25 K, 10385 kPa	693.22 ± 1.4	0.4681 ± 0.0064
293.25 K, 14421 kPa	696.48 ± 1.4	0.4907 ± 0.0067
293.25 K, 17447 kPa	698.88 ± 1.5	0.5062 ± 0.0069
293.25 K, 20472 kPa	701.01 ± 1.5	0.5237 ± 0.0071
293.25 K, 23543 kPa	703.3 ± 1.5	0.5407 ± 0.0073
293.25 K, 26611 kPa	705.5 ± 1.5	0.5567 ± 0.0076
313.07 K, 11204 kPa	678.28 ± 1.4	0.3782 ± 0.0052
313.07 K, 17225 kPa	683.61 ± 1.4	0.4049 ± 0.0056
313.07 K, 20247 kPa	686.13 ± 1.4	0.4185 ± 0.0058
313.07 K, 29805 kPa	693.98 ± 1.5	0.4596 ± 0.0063
313.08 K, 2050 kPa	669.15 ± 1.4	0.3388 ± 0.0047
313.08 K, 4083 kPa	671.15 ± 1.4	0.3472 ± 0.0048
313.08 K, 6733 kPa	673.77 ± 1.4	0.359 ± 0.005
313.08 K, 14195 kPa	681.03 ± 1.4	0.3912 ± 0.0054
313.08 K, 23266 kPa	688.54 ± 1.5	0.4314 ± 0.0059
313.08 K, 26286 kPa	691.26 ± 1.5	0.4449 ± 0.0061
332.77 K, 4091 kPa	654.57 ± 1.3	0.2886 ± 0.0041
332.78 K, 2084 kPa	652.25 ± 1.3	0.2805 ± 0.004
332.78 K, 7031 kPa	658.26 ± 1.4	0.2994 ± 0.0042
332.78 K, 11151 kPa	662.67 ± 1.4	0.3143 ± 0.0044
332.78 K, 14177 kPa	665.56 ± 1.4	0.3261 ± 0.0046
332.78 K, 17172 kPa	668.79 ± 1.4	0.3367 ± 0.0047
332.78 K, 20193 kPa	671.47 ± 1.4	0.3472 ± 0.0048
332.78 K, 23214 kPa	674.57 ± 1.4	0.3581 ± 0.005
332.78 K, 26231 kPa	677.28 ± 1.4	0.3689 ± 0.0051
352.39 K, 2184 kPa	635.33 ± 1.3	0.2346 ± 0.0034
352.39 K, 4102 kPa	637.96 ± 1.3	0.2413 ± 0.0035
352.39 K, 11159 kPa	646.85 ± 1.4	0.2635 ± 0.0038
352.39 K, 14169 kPa	650.4 ± 1.4	0.2732 ± 0.0039
352.39 K, 17199 kPa	653.84 ± 1.4	0.283 ± 0.004
352.39 K, 29758 kPa	666.6 ± 1.4	0.3207 ± 0.0045
352.4 K, 7146 kPa	641.83 ± 1.3	0.2514 ± 0.0036
352.4 K, 20204 kPa	657.05 ± 1.4	0.2922 ± 0.0041
352.4 K, 23212 kPa	660.04 ± 1.4	0.3015 ± 0.0043
352.4 K, 26228 kPa	663.06 ± 1.4	0.3106 ± 0.0044

CCCCCCCO [heptan-1-ol]
Conditions	mass density, 298.15 K [kg/m3]	mass density, 323.15 K [kg/m3]	viscosity, 298.15 K [mPa·s]	viscosity, 323.15 K [mPa·s]
2002 kPa	819.81 ± 1.5	–	5.986 ± 0.093	–
2006 kPa	–	802.09 ± 1.5	–	2.779 ± 0.044
3999 kPa	821.2 ± 1.5	–	6.11 ± 0.095	–
4003 kPa	–	803.5 ± 1.5	–	2.832 ± 0.045
6000 kPa	–	804.98 ± 1.5	–	2.887 ± 0.045
6006 kPa	822.3 ± 1.5	–	6.233 ± 0.097	–
7993 kPa	–	806.39 ± 1.5	–	2.942 ± 0.046
8000 kPa	823.7 ± 1.5	–	6.359 ± 0.099	–
10000 kPa	–	807.79 ± 1.5	–	3 ± 0.047
10002 kPa	824.8 ± 1.6	–	6.487 ± 0.1	–
12997 kPa	826.41 ± 1.6	–	6.683 ± 0.1	–
13006 kPa	–	809.85 ± 1.5	–	3.085 ± 0.049
15999 kPa	828.31 ± 1.6	–	6.883 ± 0.11	–
16007 kPa	–	811.88 ± 1.5	–	3.173 ± 0.05
18995 kPa	831.3 ± 1.6	–	7.086 ± 0.11	–
19004 kPa	–	813.79 ± 1.6	–	3.263 ± 0.051
22001 kPa	833.2 ± 1.6	–	7.297 ± 0.11	–
22008 kPa	–	815.68 ± 1.6	–	3.354 ± 0.053
25000 kPa	835.1 ± 1.6	–	7.511 ± 0.12	–
25007 kPa	–	817.57 ± 1.6	–	3.446 ± 0.054

O [water]
Conditions	mass density [kg/m3]	viscosity [mPa·s]
293.36 K, 2061 kPa	999.51 ± 0.7	0.9917 ± 0.009
293.36 K, 4085 kPa	999.98 ± 0.7	0.9931 ± 0.009
293.37 K, 7118 kPa	1001.28 ± 0.7	0.9928 ± 0.009
293.37 K, 26278 kPa	1010.35 ± 0.71	0.9863 ± 0.0089
293.38 K, 11158 kPa	1003.59 ± 0.7	0.9898 ± 0.009
293.38 K, 17210 kPa	1006.18 ± 0.71	0.9897 ± 0.009
293.38 K, 20234 kPa	1006.98 ± 0.71	0.988 ± 0.0089
293.38 K, 23255 kPa	1008.25 ± 0.71	0.9883 ± 0.0089
313.08 K, 4076 kPa	994.07 ± 0.7	0.6535 ± 0.0061
313.08 K, 7109 kPa	995.47 ± 0.7	0.6538 ± 0.0061
313.08 K, 11150 kPa	996.66 ± 0.7	0.6546 ± 0.0061
313.08 K, 14177 kPa	997.99 ± 0.7	0.655 ± 0.0061
313.08 K, 17203 kPa	999.9 ± 0.7	0.6552 ± 0.0061
313.08 K, 20228 kPa	1000.99 ± 0.7	0.6557 ± 0.0061
313.08 K, 23250 kPa	1001.91 ± 0.7	0.6559 ± 0.0061
313.08 K, 26271 kPa	1003.18 ± 0.7	0.6562 ± 0.0061
313.08 K, 29788 kPa	1004.77 ± 0.7	0.6586 ± 0.0061
313.09 K, 2053 kPa	992.98 ± 0.7	0.6538 ± 0.0061
332.85 K, 14173 kPa	989.5 ± 0.7	0.4707 ± 0.0045
332.85 K, 17195 kPa	990.83 ± 0.7	0.4712 ± 0.0045
332.85 K, 20214 kPa	991.48 ± 0.7	0.4725 ± 0.0045
332.85 K, 26252 kPa	994.06 ± 0.7	0.4751 ± 0.0045
332.86 K, 4081 kPa	984.88 ± 0.69	0.4685 ± 0.0045
332.86 K, 7113 kPa	985.99 ± 0.69	0.4685 ± 0.0045
332.86 K, 11150 kPa	988.22 ± 0.69	0.47 ± 0.0045
352.57 K, 4073 kPa	973.51 ± 0.68	0.3574 ± 0.0035
352.58 K, 2044 kPa	972.64 ± 0.68	0.3565 ± 0.0035
352.58 K, 7107 kPa	975.4 ± 0.68	0.3582 ± 0.0035
352.59 K, 11142 kPa	977 ± 0.69	0.3592 ± 0.0035
352.59 K, 14161 kPa	977.85 ± 0.69	0.36 ± 0.0036
352.6 K, 17181 kPa	979.13 ± 0.69	0.361 ± 0.0036
352.6 K, 20194 kPa	980.96 ± 0.69	0.3617 ± 0.0036
352.6 K, 23203 kPa	982.36 ± 0.69	0.3627 ± 0.0036
352.6 K, 26211 kPa	983.69 ± 0.69	0.3638 ± 0.0036
352.6 K, 29715 kPa	984.92 ± 0.69	0.3648 ± 0.0036
